According to patent publication US8349844B2, “Substituted pyrazolo [1,5-A] pyrimidines as metabotropic glutamate antagonists” (Hoffmann-La Roche Inc., priority 2005, dated 2013):

Columns and labels:
rat mGlu2 receptor = target: T1, rat mGlu2 receptor (Rattus norvegicus, UniProt P31421); assay: [3H]-LY354740 binding on mGlu2 transfected CHO cell membranes; details: [3H]-LY354740 (10 nM) displacement
T1 construct: expressed in transfected cells; membranes prepared from them
Excerpt: [^3H]-LY354740 Binding on mGlu2 Transfected CHO Cell Membranes. Transfection and Cell Culture
cDNA encoding the rat mGlu2 receptor protein in pBluescript II was subcloned into the eukaryotic expression vector pcDNA I-amp from Invitrogen Ltd (Paisley, UK). This vector construct (pcD1mGR2) was co-transfected with a psvNeo plasmid encoding the gene for neomycin resistance, into CHO cells by a modified calcium phosphate method described by Chen & Okayama (1988). The cells were maintained in Dulbecco's Modified Eagle medium with reduced L-glutamine (2 mM final concentration) and 10% dialysed foetal calf serum from Gibco-Invitrogen (Carlsbad, Calif., USA). Selection was made in the presence of G-418 (1000 ug/ml final) and […]. Clones were identified by reverse transcription of 5 μg total RNA, followed by PCR using mGlu2 receptor specific primers 5′-[…]-3′ and 5′-[…]-3′ in 60 mM Tris HCl (pH 10), 15 mM (NH4)2SO4, 2 mM MgCl2, 25 units/ml Taq Polymerase with 30 cycles annealing at 60° C. for 1 min., extention at 72° C. for 30 s, and 1 min. 95° C. denaturation.
Cells, cultured as above, were harvested and washed three times with cold PBS and frozen at −80° C. The pellet was resuspended in cold 20 mM HEPES-NaOH buffer containing 10 mM EDTA (pH 7.4), and homogenised with a polytron (Kinematica, A G, Littau, Switzerland) for 10 s at 10 000 rpm. After centrifugation for 30 min. at 4° C., the pellet was washed once with the same buffer, and once with cold 20 mM HEPES-NaOH buffer containing 0.1 mM EDTA, (pH 7.4). Protein content was measured using the micro BCA method from Pierce-Perbio (Rockford, Ill., USA) using bovine serum albumin as standard.
After thawing, the membranes were resuspended in cold 50 mM Tris-HCl buffer containing 2 mM MgCl2 (pH 7) (binding buffer). The final concentration of the membranes in the assays was 25 μg protein/ml. Inhibition experiments were performed with membranes incubated with 10 nM [^3H]-LY354740 at room temperature, for 1 hour, in presence of various concentrations of the compound to be tested. Following the incubations, membranes were filtered onto Whatmann GF/B glass fiber filters and washed 5 times with cold binding buffer. Non specific binding was measured in the presence of 10 μM DCG IV. After transfer of the filters into plastic vials containing 10 ml of Ultima-gold scintillation fluid from Perkin-Elmer (Boston, Mass., USA), the radioactivity was measured by liquid scintillation in a Tri-Garb 2500 TR counter (Packard, Zürich, Switzerland).
The inhibition curves were fitted with a four parameter logistic equation giving IC50 values, and Hill coefficients.

T1 sequence (P31421 19-872): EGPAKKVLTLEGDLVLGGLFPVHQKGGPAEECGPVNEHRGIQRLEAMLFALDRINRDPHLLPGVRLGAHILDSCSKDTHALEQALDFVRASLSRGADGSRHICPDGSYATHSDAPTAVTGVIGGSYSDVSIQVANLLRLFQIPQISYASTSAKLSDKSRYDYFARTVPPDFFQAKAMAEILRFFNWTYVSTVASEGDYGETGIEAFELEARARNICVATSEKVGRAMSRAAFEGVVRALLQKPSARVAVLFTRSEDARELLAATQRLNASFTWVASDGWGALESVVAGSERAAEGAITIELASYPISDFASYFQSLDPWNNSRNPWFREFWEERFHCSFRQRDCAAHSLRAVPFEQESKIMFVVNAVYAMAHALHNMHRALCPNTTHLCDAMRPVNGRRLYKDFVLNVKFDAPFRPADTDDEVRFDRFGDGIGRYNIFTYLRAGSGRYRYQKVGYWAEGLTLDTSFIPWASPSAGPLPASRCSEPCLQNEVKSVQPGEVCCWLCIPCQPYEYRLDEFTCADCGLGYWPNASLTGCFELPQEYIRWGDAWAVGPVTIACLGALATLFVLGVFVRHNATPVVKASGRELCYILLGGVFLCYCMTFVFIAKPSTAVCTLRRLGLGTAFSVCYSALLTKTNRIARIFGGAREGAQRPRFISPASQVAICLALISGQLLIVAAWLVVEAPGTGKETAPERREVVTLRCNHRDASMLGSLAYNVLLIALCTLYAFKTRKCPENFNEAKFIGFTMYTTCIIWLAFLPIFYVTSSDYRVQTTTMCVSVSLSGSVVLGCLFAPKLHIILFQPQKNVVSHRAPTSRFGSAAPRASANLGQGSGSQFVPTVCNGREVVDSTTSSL

| Compound | melting point [°C] | Ki (rat mGlu2 receptor) [nM] |
| --- | --- | --- |
| NS(=O)(=O)c1ccc(-c2noc(-c3cnn4c(C(F)(F)F)cc(-c5ccc(C(F)(F)F)cc5)nc34)n2)cc1 [Example 1, 4-{5-[7-Trifluoromethyl-5-(4-trifluoromethyl-phenyl)-pyrazolo[1,5-a]pyrimidin-3-yl]-[1,2,4]oxadiazol-3-yl}-benzenesulfonamide] | 275 | 5.6 |
| FC(F)(F)c1ccc(-c2cc(C(F)(F)F)n3ncc(-c4nc(-c5cccnc5)no4)c3n2)cc1 [Example 3, 3-(3-Pyridin-3-yl-[1,2,4]oxadiazol-5-yl)-7-trifluoromethyl-5-(4-trifluoromethyl-phenyl)-pyrazolo[1,5-a]pyrimidine] | 199 | 48.1 |
| NS(=O)(=O)c1cccc(-c2noc(-c3cnc4c(C(F)(F)F)cc(-c5ccc(C(F)(F)F)cc5)cn34)n2)c1 [Example 11, 3-{5-[8-Trifluoromethyl-6-(4-trifluoromethyl-phenyl)-imidazo[1,2-a]pyridin-3-yl]-[1,2,4]oxadiazol-3-yl}-benzenesulfonamide] | 297 | 8.8 |
| NS(=O)(=O)c1ccc(-c2noc(-c3cnn4c(C5CC5)cc(-c5ccc(Cl)cc5)nc34)n2)s1 [Example 20, 5-{5-[5-(4-Chloro-phenyl)-7-cydopropyl-pyrazolo[1,5-a]pyrimidin-3-yl]-[1,2,4]oxadiazol-3-yl}-thiophene-2-sulfonic acid amide] | 294 | 16.1 |
| NS(=O)(=O)c1ccc(-c2nc(-c3ncn4c(C(F)(F)F)cc(-c5ccc(C(F)(F)F)cc5)nc34)no2)cc1 [Example 21, 4-{3-[4-Trifluoromethyl-2-(4-trifluoromethyl-phenyl)-imidazo[1,5-a]pyrimidin-8-yl]-[1,2,4]oxadiazol-5-yl}-benzenesulfonamide] | 303 | 10.2 |
| Nc1ccc(-c2noc(-c3cnn4c(C(F)(F)F)cc(-c5cccc(C(F)(F)F)c5)nc34)n2)cn1 [Example 34, 5-{5-[7-Trifluoromethyl-5-(3-trifluoromethyl-phenyl)-pyrazolo[1,5-a]pyrimidin-3-yl]-[1,2,4]oxadiazol-3-yl}-pyridin-2-ylamine] | 264 | 51 |
| Cc1cc(-c2ccc(Cl)cc2)cn2c(-c3nc(-c4ccc(S(N)(=O)=O)s4)no3)cnc12 [Example 41, 5-{5-[6-(4-Chloro-phenyl)-8-methyl-imidazo[1,2-a]pyridin-3-yl]-[1,2,4]oxadiazol-3-yl}-thiophene-2-sulfonic acid amide] | 271 | 21.3 |
| NS(=O)(=O)c1ccc(-c2noc(-c3ncn4c(C(F)(F)F)cc(-c5ccc(C(F)(F)F)cc5)nc34)n2)s1 [Example 42, 5-{5-[4-Trifluoromethyl-2-(4-trifluoromethyl-phenyl)-imidazo[1,5-a]pyrimidin-8-yl]-[1,2,4]oxadiazol-3-yl}-thiophene-2-sulfonic acid amide] | 295 | 14.6 |
| Nc1ncc(-c2noc(-c3cnn4c(C(F)(F)F)cc(-c5ccc(C(F)(F)F)cc5)nc34)n2)cn1 [Example 46, 5-{5-[7-Trifluoromethyl-5-(4-trifluoromethyl-phenyl)-pyrazolo[1,5-a]pyrimidin-3-yl]-[1,2,4]oxadiazol-3-yl}-pyrimidin-2-ylamine] | 254 | 14.5 |

Now from value to molecule:

| melting point [°C] | Ki (rat mGlu2 receptor) [nM] | Compound |
| --- | --- | --- |
| 257 | 7.7 | Cc1cc(-c2ccc(C(F)(F)F)cc2)cn2c(-c3nc(-c4ccc(N)nc4)no3)cnc12 [Example 47, 5-{5-[8-Methyl-6-(4-trifluoromethyl-phenyl)-imidazo[1,2-a]pyridin-3-yl]-[1,2,4]oxadiazol-3-yl}-pyridin-2-ylamine] |
| 302 | 6.5 | Cc1cc(-c2ccc(C(F)(F)F)cc2)cn2c(-c3nc(-c4cnc(N)nc4)no3)cnc12 [Example 48, 5-{5-[8-Methyl-6-(4-trifluoromethyl-phenyl)-imidazo[1,2-a]pyridin-3-yl]-[1,2,4]oxadiazol-3-yl}-pyrimidin-2-ylamine] |
| 243 | 25.5 | Cc1cc(-c2cc(C(F)F)n3ncc(-c4nc(-c5ccc(N)nc5)no4)c3n2)ccc1Cl [Example 77, 5-{5-[5-(4-Chloro-3-methyl-phenyl)-7-difluoromethyl-pyrazolo[1,5-a]pyrimidin-3-yl]-[1,2,4]oxadiazol-3-yl}-pyridin-2-ylamine] |
| 300 | – | Nc1ncc(-c2noc(-c3cnn4c(C(F)(F)F)cc(-c5ccc(Cl)c(Cl)c5)nc34)n2)cn1 [Example 81, 5-{5-[5-(3,4-Dichloro-phenyl)-7-trifluoromethyl-pyrazolo[1,5-a]pyrimidin-3-yl]-[1,2,4]oxadiazol-3-yl}-pyrimidin-2-ylamine] |
| 268 | – | Nc1ncc(-c2noc(-c3cnn4c(C(F)(F)F)cc(-c5ccc(Cl)cc5)nc34)n2)cn1 [Example 82, 5-{5-[5-(4-Chloro-phenyl)-7-trifluoromethyl-pyrazolo[1,5-a]pyrimidin-3-yl]-[1,2,4]oxadiazol-3-yl}-pyrimidin-2-ylamine] |
| 272 | – | Cc1cc(-c2cc(C(F)(F)F)n3ncc(-c4nc(-c5cnc(N)nc5)no4)c3n2)ccc1C(F)(F)F [Example 83, 5-{5-[5-(3-Methyl-4-trifluoromethyl-phenyl)-7-trifluoromethyl-pyrazolo[1,5-a]pyrimidin-3-yl]-[1,2,4]oxadiazol-3-yl}-pyrimidin-2-ylamine] |
| 272 | – | Cc1cc(-c2cc(C(F)(F)F)n3ncc(-c4nc(-c5cnc(N)nc5)no4)c3n2)ccc1Cl [Example 84, 5-{5-[5-(4-Chloro-3-methyl-phenyl)-7-trifluoromethyl-pyrazolo[1,5-a]pyrimidin-3-yl]-[1,2,4]oxadiazol-3-yl}-pyrimidin-2-ylamine] |
| 252 | – | Nc1cc(-c2noc(-c3cnn4c(C(F)(F)F)cc(-c5ccc(Cl)cc5)nc34)n2)ccn1 [Example 85, 4-{5-[5-(4-Chloro-phenyl)-7-trifluoromethyl-pyrazolo[1,5-a]pyrimidin-3-yl]-[1,2,4]oxadiazol-3-yl}-pyridin-2-ylamine] |
| 262 | – | Nc1cc(-c2noc(-c3cnn4c(C(F)(F)F)cc(-c5ccc(Cl)c(Cl)c5)nc34)n2)ccn1 [Example 86, 4-{5-[5-(3,4-Dichloro-phenyl)-7-trifluoromethyl-pyrazolo[1,5-a]pyrimidin-3-yl]-[1,2,4]oxadiazol-3-yl}-pyridin-2-ylamine] |
| 245 | – | Cc1cc(-c2cc(C(F)(F)F)n3ncc(-c4nc(-c5ccnc(N)c5)no4)c3n2)ccc1C(F)(F)F [Example 87, 4-{5-[5-(3-Methyl-4-trifluoromethyl-phenyl)-7-trifluoromethyl-pyrazolo[1,5-a]pyrimidin-3-yl]-[1,2,4]oxadiazol-3-yl}-pyridine-2-ylamine] |
